In ChEMBL document CHEMBL6127042, “Design, synthesis and antimycobacterial activity of novel benzothiazinones with improved water solubility” (Eur J Med Chem, 2024):
Values after ≈ are worked out from the molar mass of the structure shown.

What was measured:
[1] = system: Mycobacterium tuberculosis; assay: Antitubercular activity against multidrug resistant Mycobacterium tuberculosis 16995 assessed as bacterial growth inhibition incubated for 7 days in 7H9 medium by alamar blue staining based microplate fluorometric analysis; type: functional; settings: Mycobacterium tuberculosis, 16995, 168 h; time 7 day
[2] = system: Mycobacterium tuberculosis; assay: Antitubercular activity against multidrug resistant Mycobacterium tuberculosis 16833 assessed as bacterial growth inhibition incubated for 7 days in 7H9 medium by alamar blue staining based microplate fluorometric analysis; type: functional; settings: Mycobacterium tuberculosis, 16833, 168 h; time 7 day
[3] = Selectivity index, ratio of CC50 for cytotoxicity against African green monkey Vero cells to MIC for antimycobacterial activity against multidrug resistant Mycobacterium tuberculosis 16833; type: toxicity, cell-based; settings: read-out: Selectivity Index

Row | SMILES | MIC [1] [µM] | MIC [2] [µM] | selectivity ratio [3]
1 | O=C(O)CNC(=O)CCON=C1CCC(CN2CCN(c3nc(=O)c4cc(C(F)(F)F)cc([N+](=O)[O-])c4s3)CC2)CC1 (stereo not drawn) | 0.425 (≈ 0.261 µg/mL) | 0.21 (≈ 0.129 µg/mL) | > 496
2 | CC(C)(C)OC(=O)NCCON=C1CCC(CN2CCN(c3nc(=O)c4cc(C(F)(F)F)cc([N+](=O)[O-])c4s3)CC2)CC1 (stereo not drawn) | 0.041 (≈ 0.0258 µg/mL) | < 0.025 | > 4080
3 | CC(C)(C)OC(=O)CNC(=O)CCON=C1CCC(CN2CCN(c3nc(=O)c4cc(C(F)(F)F)cc([N+](=O)[O-])c4s3)CC2)CC1 (stereo not drawn) | 0.093 (≈ 0.0624 µg/mL) | 0.048 (≈ 0.0322 µg/mL) | > 1990
4 | O=C(O)CCON=C1CCC(CN2CCN(c3nc(=O)c4cc(C(F)(F)F)cc([N+](=O)[O-])c4s3)CC2)CC1 (stereo not drawn) | 0.221 (≈ 0.123 µg/mL) | 0.212 (≈ 0.118 µg/mL) | > 542
5 | O=C(O)CON=C1CCC(CN2CCN(c3nc(=O)c4cc(C(F)(F)F)cc([N+](=O)[O-])c4s3)CC2)CC1 (stereo not drawn) | 0.057 (≈ 0.031 µg/mL) | 0.057 (≈ 0.031 µg/mL) | > 2070
6 | CC(C)(C)OC(=O)CNC(=O)C(C)(C)ON=C1CCC(CN2CCN(c3nc(=O)c4cc(C(F)(F)F)cc([N+](=O)[O-])c4s3)CC2)CC1 (stereo not drawn) | 0.066 (≈ 0.0452 µg/mL) | 0.067 (≈ 0.0459 µg/mL) | > 1400
7 | C[C@H](NC(=O)CON=C1CCC(CN2CCN(c3nc(=O)c4cc(C(F)(F)F)cc([N+](=O)[O-])c4s3)CC2)CC1)C(=O)OC(C)(C)C (stereo partly drawn) | 0.167 (≈ 0.112 µg/mL) | 0.14 (≈ 0.0939 µg/mL) | > 682
8 | CC(C)(C)OC(=O)CNC(=O)CON=C1CCC(CN2CCN(c3nc(=O)c4cc(C(F)(F)F)cc([N+](=O)[O-])c4s3)CC2)CC1 (stereo not drawn) | 0.03 (≈ 0.0197 µg/mL) | 0.239 (≈ 0.157 µg/mL) | > 408
9 | O=C(O)CNC1CCC(CN2CCN(c3nc(=O)c4cc(C(F)(F)F)cc([N+](=O)[O-])c4s3)CC2)CC1 (stereo not drawn) | 0.095 (≈ 0.0503 µg/mL) | 0.087 (≈ 0.0461 µg/mL) | > 1390
10 | C[C@H](NC(=O)C(C)(C)ON=C1CCC(CN2CCN(c3nc(=O)c4cc(C(F)(F)F)cc([N+](=O)[O-])c4s3)CC2)CC1)C(=O)OC(C)(C)C (stereo partly drawn) | 0.03 (≈ 0.021 µg/mL) | < 0.023 | > 3980
11 | CC(C)(ON=C1CCC(CN2CCN(c3nc(=O)c4cc(C(F)(F)F)cc([N+](=O)[O-])c4s3)CC2)CC1)C(=O)O (stereo not drawn) | 0.109 (≈ 0.0623 µg/mL) | 0.375 (≈ 0.214 µg/mL) | > 299
12 | CC(C)(C)OC(=O)CCON=C1CCC(CN2CCN(c3nc(=O)c4cc(C(F)(F)F)cc([N+](=O)[O-])c4s3)CC2)CC1 (stereo not drawn) | 0.068 (≈ 0.0417 µg/mL) | 0.031 (≈ 0.019 µg/mL) | > 3370
13 | NNC(=O)c1ccncc1 [ISONIAZID] | > 72.9 | > 72.9 | 
14 | O=c1nc(N2CCN(CC3CCCCC3)CC2)sc2c([N+](=O)[O-])cc(C(F)(F)F)cc12 [MACOZINONE] | < 0.035 | < 0.035 | > 4010
15 | CO[C@H]1/C=C/O[C@@]2(C)Oc3c(C)c(O)c4c(O)c(c(/C=N/N5CCN(C)CC5)c(O)c4c3C2=O)NC(=O)/C(C)=C\C=C\[C@H](C)[C@H](O)[C@@H](C)[C@@H](O)[C@@H](C)[C@H](OC(C)=O)[C@@H]1C [RIFAMPIN] | > 12.2 | > 12.2 | 
